Assay results published in PubChem BioAssay (NCI).
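Following 48 hours of exposure in 96-well plates, responses at five concentrations were used to interpolate endpoints linearly. TGI: concentration producing complete growth inhibition.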

How the values were obtained:
Assay in all cases: NCI anticancer screen, dose series, 48 h
786-0 renal = tested on: 786-0 renal
A498 renal = tested on: A498 renal
A549 NSCLC = tested on: A549 NSCLC
ACHN renal = tested on: ACHN renal
CAKI-1 renal = tested on: CAKI-1 renal
CCRF-CEM leukemia = tested on: CCRF-CEM leukemia
COLO 205 colon = tested on: COLO 205 colon
DLD-1 colon = tested on: DLD-1 colon
HCT-116 colon = tested on: HCT-116 colon
HCT-15 colon = tested on: HCT-15 colon
HL-60(TB) leukemia = tested on: HL-60(TB) leukemia
HOP-18 NSCLC = tested on: HOP-18 NSCLC
HOP-62 NSCLC = tested on: HOP-62 NSCLC
HOP-92 NSCLC = tested on: HOP-92 NSCLC
HT29 colon = tested on: HT29 colon
IGROV1 ovarian = tested on: IGROV1 ovarian
K-562 leukemia = tested on: K-562 leukemia
KM12 colon = tested on: KM12 colon
KM20L2 colon = tested on: KM20L2 colon
LOX IMVI melanoma = tested on: LOX IMVI melanoma
LXFL 529 NSCLC = tested on: LXFL 529 NSCLC
M14 melanoma = tested on: M14 melanoma
M19-MEL melanoma = tested on: M19-MEL melanoma
MALME-3M melanoma = tested on: MALME-3M melanoma
MOLT-4 leukemia = tested on: MOLT-4 leukemia
NCI-H226 lung = tested on: NCI-H226 lung
NCI-H23 lung = tested on: NCI-H23 lung
NCI-H460 lung = tested on: NCI-H460 lung
NCI-H522 lung = tested on: NCI-H522 lung
OVCAR-3 ovarian = tested on: OVCAR-3 ovarian
OVCAR-4 ovarian = tested on: OVCAR-4 ovarian
OVCAR-5 ovarian = tested on: OVCAR-5 ovarian
OVCAR-8 ovarian = tested on: OVCAR-8 ovarian
RPMI-8226 leukemia = tested on: RPMI-8226 leukemia
SF-268 CNS = tested on: SF-268 CNS
SF-295 CNS = tested on: SF-295 CNS
SF-539 CNS = tested on: SF-539 CNS
SK-MEL-2 melanoma = tested on: SK-MEL-2 melanoma
SK-MEL-28 melanoma = tested on: SK-MEL-28 melanoma
SK-MEL-5 melanoma = tested on: SK-MEL-5 melanoma
SK-OV-3 ovarian = tested on: SK-OV-3 ovarian
SN12C renal = tested on: SN12C renal
SNB-19 CNS = tested on: SNB-19 CNS
SNB-75 CNS = tested on: SNB-75 CNS
SNB-78 CNS = tested on: SNB-78 CNS
SR leukemia = tested on: SR leukemia
SW-620 colon = tested on: SW-620 colon
TK-10 renal = tested on: TK-10 renal
U251 CNS = tested on: U251 CNS
UACC-257 melanoma = tested on: UACC-257 melanoma
UACC-62 melanoma = tested on: UACC-62 melanoma
UO-31 renal = tested on: UO-31 renal
BT-549 breast = tested on: BT-549 breast
DMS 114 small cell lung = tested on: DMS 114 small cell lung
DMS 273 small cell lung = tested on: DMS 273 small cell lung
DU-145 prostate = tested on: DU-145 prostate
EKVX NSCLC = tested on: EKVX NSCLC
HCC-2998 colon = tested on: HCC-2998 colon
HS 578T breast = tested on: HS 578T breast
MCF7 breast = tested on: MCF7 breast
MDA-MB-231 breast = tested on: MDA-MB-231 breast
MDA-MB-435 = tested on: MDA-MB-435
MDA-N = tested on: MDA-N
NCI/ADR-RES ovarian = tested on: NCI/ADR-RES ovarian
PC-3 prostate = tested on: PC-3 prostate
RXF 393 renal = tested on: RXF 393 renal
T-47D breast = tested on: T-47D breast

COc1ccc(NC(=O)CC(=O)NN2C(=O)/C(=C/c3ccc(N(CCC#N)CCC#N)cc3C)N=C2/C=C\c2ccccc2)cc1
TGI (786-0 renal): > 100 µM
TGI (A498 renal): > 100 µM
TGI (A549 NSCLC): > 100 µM
TGI (ACHN renal): > 100 µM
TGI (CAKI-1 renal): > 100 µM
TGI (CCRF-CEM leukemia): > 100 µM
TGI (COLO 205 colon): > 100 µM
TGI (DLD-1 colon): > 100 µM
TGI (HCT-116 colon): > 100 µM
TGI (HCT-15 colon): > 100 µM
TGI (HL-60(TB) leukemia): > 100 µM
TGI (HOP-18 NSCLC): > 100 µM
TGI (HOP-62 NSCLC): > 100 µM
TGI (HOP-92 NSCLC): > 100 µM
TGI (HT29 colon): > 100 µM
TGI (IGROV1 ovarian): > 100 µM
TGI (K-562 leukemia): > 100 µM
TGI (KM12 colon): > 100 µM
TGI (KM20L2 colon): > 100 µM
TGI (LOX IMVI melanoma): > 100 µM
TGI (LXFL 529 NSCLC): > 100 µM
TGI (M14 melanoma): > 100 µM
TGI (M19-MEL melanoma): > 100 µM
TGI (MALME-3M melanoma): > 100 µM
TGI (MOLT-4 leukemia): > 100 µM
TGI (NCI-H226 lung): > 100 µM
TGI (NCI-H23 lung): > 100 µM
TGI (NCI-H460 lung): > 100 µM
TGI (NCI-H522 lung): > 100 µM
TGI (OVCAR-3 ovarian): > 100 µM
TGI (OVCAR-4 ovarian): > 100 µM
TGI (OVCAR-5 ovarian): > 100 µM
TGI (OVCAR-8 ovarian): > 100 µM
TGI (RPMI-8226 leukemia): > 100 µM
TGI (SF-268 CNS): > 100 µM
TGI (SF-295 CNS): > 100 µM
TGI (SF-539 CNS): > 100 µM
TGI (SK-MEL-2 melanoma): > 100 µM
TGI (SK-MEL-28 melanoma): > 100 µM
TGI (SK-MEL-5 melanoma): > 100 µM
TGI (SK-OV-3 ovarian): > 100 µM
TGI (SN12C renal): > 100 µM
TGI (SNB-19 CNS): > 100 µM
TGI (SNB-75 CNS): > 100 µM
TGI (SNB-78 CNS): > 100 µM
TGI (SR leukemia): > 100 µM
TGI (SW-620 colon): > 100 µM
TGI (TK-10 renal): > 100 µM
TGI (U251 CNS): > 100 µM
TGI (UACC-257 melanoma): > 100 µM
TGI (UACC-62 melanoma): > 100 µM
TGI (UO-31 renal): > 100 µM

O=C1C=C(Nc2cccnc2)c2ccccc2C1=O
TGI (786-0 renal): 23.8 µM
TGI (A498 renal): 22.3 µM
TGI (A549 NSCLC): 13.3 µM
TGI (ACHN renal): 20.5 µM
TGI (BT-549 breast): 3.83 µM
TGI (CAKI-1 renal): 18.6 µM
TGI (CCRF-CEM leukemia): 51.9 µM
TGI (COLO 205 colon): 38.6 µM
TGI (DLD-1 colon): 20 µM
TGI (DMS 114 small cell lung): 5.01 µM
TGI (DMS 273 small cell lung): > 39.6 µM
TGI (DU-145 prostate): 14.1 µM
TGI (EKVX NSCLC): 26.7 µM
TGI (HCC-2998 colon): 30.5 µM
TGI (HCT-116 colon): 25.6 µM
TGI (HCT-15 colon): 29.3 µM
TGI (HL-60(TB) leukemia): 23 µM
TGI (HOP-18 NSCLC): 22 µM
TGI (HOP-62 NSCLC): 12.9 µM
TGI (HOP-92 NSCLC): 27.1 µM
TGI (HS 578T breast): 8.33 µM
TGI (HT29 colon): 33.7 µM
TGI (IGROV1 ovarian): 18.7 µM
TGI (K-562 leukemia): 22.7 µM
TGI (KM12 colon): 23.4 µM
TGI (KM20L2 colon): > 62.3 µM
TGI (LOX IMVI melanoma): 9.9 µM
TGI (LXFL 529 NSCLC): > 51.3 µM
TGI (M14 melanoma): 6.76 µM
TGI (MALME-3M melanoma): 5.35 µM
TGI (MCF7 breast): 8.2 µM
TGI (MDA-MB-231 breast): 20.4 µM
TGI (MDA-MB-435): 1.39 µM
TGI (MDA-N): 1.42 µM
TGI (MOLT-4 leukemia): 46.6 µM
TGI (NCI-H226 lung): 38.1 µM
TGI (NCI-H23 lung): 9.41 µM
TGI (NCI-H460 lung): 12.5 µM
TGI (NCI-H522 lung): 15.5 µM
TGI (NCI/ADR-RES ovarian): 23.9 µM
TGI (OVCAR-3 ovarian): 11.6 µM
TGI (OVCAR-4 ovarian): 19.9 µM
TGI (OVCAR-5 ovarian): 18.4 µM
TGI (OVCAR-8 ovarian): 23.1 µM
TGI (PC-3 prostate): 52.4 µM
TGI (RPMI-8226 leukemia): 51.3 µM
TGI (RXF 393 renal): 38 µM
TGI (SF-268 CNS): 20.9 µM
TGI (SF-295 CNS): 9.09 µM
TGI (SF-539 CNS): 8.41 µM
TGI (SK-MEL-2 melanoma): 25.1 µM
TGI (SK-MEL-28 melanoma): 13.5 µM
TGI (SK-MEL-5 melanoma): 2.58 µM
TGI (SK-OV-3 ovarian): 22.1 µM
TGI (SN12C renal): 21.5 µM
TGI (SNB-19 CNS): 24.8 µM
TGI (SNB-75 CNS): 5.45 µM
TGI (SNB-78 CNS): 38 µM
TGI (SR leukemia): 37 µM
TGI (SW-620 colon): 18.7 µM
TGI (T-47D breast): 43.8 µM
TGI (TK-10 renal): 34.5 µM
TGI (U251 CNS): 24.4 µM
TGI (UACC-257 melanoma): 4.48 µM
TGI (UACC-62 melanoma): 3.31 µM
TGI (UO-31 renal): 24.2 µM
